Experimental findings from patent publication US8076487B2, “Pyridone derivative and herbicide” (Kumiai Chemical Industry Co., Ltd., priority 2006, dated 2011) are described below.

The structures appear in SMILES notation.

Common to all, as to format: in vivo
Assay [1] relates to barnyardgrass (Echinochloa crus-galli (L.) P. Beauv. var. crus-galli). The experiment in a line: Test Example 2: herbicidal effect by soil application to upland field. The settings on record: soil surface spray, upland field soil, 1,000 g active ingredient per hectare, 21st day after application. Summed up: (§1)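 After sowing and covering, the soil received an even aqueous spray of wettable powder at a rate of 1,000 g active ingredient/ha (1,000 L/ha). Ratings of herbicidal effect followed a standard scale 21 days post-treatment, with plants held in a greenhouse.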

Assay [2] has as its system velvetleaf (Abutilon theophrasti medicus). The description is as above. The settings on record: soil surface spray, upland field soil, 1,000 g active ingredient per hectare, 21st day after application. In a few lines:
as §1

Assay [3] concerns green foxtail (Setaria viridis (L.) P. Beauv.). The description is as above. The settings on record: soil surface spray, upland field soil, 1,000 g active ingredient per hectare, 21st day after application. In a few lines:
as §1

For assay [4], the system named is slender amaranth (Amaranthus viridis L.). Described as above. The settings on record: soil surface spray, upland field soil, 1,000 g active ingredient per hectare, 21st day after application. Summed up:
as §1

Assay [5] deals with barnyardgrass (Echinochloa crus-galli (L.) P. Beauv. var. crus-galli). The experiment in a line: Test Example 3: herbicidal effect by application to upland field (foliage treatment). The settings on record: 14th day after application; for herbicidal effect (index), Barnyardgrass: foliage treatment, plants grown two weeks, 1,000 g active ingredient per hectare; for herbicidal effect, Barnyardgrass: foliage treatment, 1,000 g active ingredient per 1 hectare, greenhouse. Summed up: (§2)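 Two weeks after sowing in field soil under greenhouse conditions, seedlings receive a top-down foliar spray of wettable powder diluted in water at an active-ingredient rate of 1,000 g per hectare. Effect is rated against a standard 14 days post-treatment.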

Assay [6] has as its system velvetleaf (Abutilon theophrasti medicus). The assay is described as above. The settings on record: 14th day after application; for herbicidal effect (index), Velvetleaf: foliage treatment, plants grown two weeks, 1,000 g active ingredient per hectare; for herbicidal effect, Velvetleaf: foliage treatment, 1,000 g active ingredient per 1 hectare, greenhouse. In a few lines: as §2

Assay [7] deals with green foxtail (Setaria viridis (L.) P. Beauv.). The assay is described as above. The settings on record: 14th day after application; for herbicidal effect (index), Green Foxtail: foliage treatment, plants grown two weeks, 1,000 g active ingredient per hectare; for herbicidal effect, Green Foxtail: foliage treatment, 1,000 g active ingredient per 1 hectare, greenhouse. Summed up:
as §2

Assay [8] deals with slender amaranth (Amaranthus viridis L.). The assay is described as above. The settings on record: 14th day after application; for herbicidal effect (index), Slender Amaranth: foliage treatment, plants grown two weeks, 1,000 g active ingredient per hectare; for herbicidal effect, Slender Amaranth: foliage treatment, 1,000 g active ingredient per 1 hectare, greenhouse. Summed up: as §2

Assay [9] has as its system heartshape false pickerelweed (Monochoria vaginalis (Burm.f.) C.Presl). The experiment in a line: Test Example 1: herbicidal effect by soil application to paddy field. The settings on record: paddy field soil application; active ingredient 1,000 g per 1 hectare; wettable powder added dropwise to water surface the day after sowing; examined on the 21st day after application. Summed up:
(§3)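 Under greenhouse conditions, seeds sown on puddled paddy soil in 100 cm2 pots under 3 cm of standing water received the test compound; injury was assessed with a standard scoring scheme three weeks (day 21) after treatment.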

The subject of assay [10] is Japanese bulrush (Scirpus juncoides Roxb.). Described as above. The settings on record: paddy field soil application; active ingredient 1,000 g per 1 hectare; wettable powder added dropwise to water surface the day after sowing; examined on the 21st day after application. In a few lines:
as §3

The test system of assay [11] is early watergrass (Echinochloa oryzicola Vasing). The assay is described as above. The settings on record: paddy field soil application; active ingredient 1,000 g per 1 hectare; wettable powder added dropwise to water surface the day after sowing; examined on the 21st day after application. In a few lines: as §3

With `N#Cc1ccc(-n2c(C(F)(F)F)ccc(C(=O)C3=C(O)CCCC3=O)c2=O)cc1` [I-95], the “herbicidal effect (index), Barnyardgrass” value in assay [1] was 5 (90% or more of herbicidal effect and crop phytotoxicity); in assay [5], 5 (90% or more of herbicidal effect and crop phytotoxicity). In addition, the “herbicidal effect (index), Velvetleaf” value is 5 (90% or more of herbicidal effect and crop phytotoxicity) in [2]; 5 (90% or more of herbicidal effect and crop phytotoxicity) in [6]. Besides, the “herbicidal effect (index), Green Foxtail” value is 5 (90% or more of herbicidal effect and crop phytotoxicity) in [3]; 5 (90% or more of herbicidal effect and crop phytotoxicity) in assay [7]. Further, the “herbicidal effect (index), Slender Amaranth” value in assay [4] was 5 (90% or more of herbicidal effect and crop phytotoxicity); in assay [8], 5 (90% or more of herbicidal effect and crop phytotoxicity). The “herbicidal effect, Monochoria vaginalis (Burm. f.) C. Presl” value (“herbicidal effect, Monochoria vaginalis” below) in assay [9] is 5 (90% or more of herbicidal effect and crop phytotoxicity). In addition, in assay [10], the “herbicidal effect, Scirpus juncoides Roxb.” value is 5 (90% or more of herbicidal effect and crop phytotoxicity). Besides, the “herbicidal effect, Echinochloa oryzicola Vasing” value in assay [11] was 5 (90% or more of herbicidal effect and crop phytotoxicity).
As for `CCCS(=O)(=O)Oc1c(C(=O)c2ccc(C(F)(F)F)n(-c3ccc4c(c3)OCO4)c2=O)cnn1CC` [IV-99], the “herbicidal effect (index), Barnyardgrass” value in assay [1] was 5 (90% or more of herbicidal effect and crop phytotoxicity). Further, the “herbicidal effect (index), Velvetleaf” value in assay [2] was 4 (70 to less than 90% of herbicidal effect and crop phytotoxicity). The “herbicidal effect (index), Green Foxtail” value in [3] is 3 (50 to less than 70% of herbicidal effect and crop phytotoxicity). For the same molecule, the “herbicidal effect (index), Slender Amaranth” value in assay [4] is 4 (70 to less than 90% of herbicidal effect and crop phytotoxicity). Moreover, the “herbicidal effect, Barnyardgrass” value in [5] was 5 (90% or more of herbicidal effect and crop phytotoxicity). Moreover, in assay [6], the “herbicidal effect, Velvetleaf” value was 5 (90% or more of herbicidal effect and crop phytotoxicity). The “herbicidal effect, Green Foxtail” value in assay [7] was 5 (90% or more of herbicidal effect and crop phytotoxicity). Moreover, the “herbicidal effect, Slender Amaranth” value in assay [8] is 5 (90% or more of herbicidal effect and crop phytotoxicity). The “herbicidal effect, Monochoria vaginalis” value in assay [9] is 5 (90% or more of herbicidal effect and crop phytotoxicity). Further, the “herbicidal effect, Scirpus juncoides Roxb.” value in assay [10] was 5 (90% or more of herbicidal effect and crop phytotoxicity). In assay [11], the “herbicidal effect, Echinochloa oryzicola Vasing” value was 5 (90% or more of herbicidal effect and crop phytotoxicity).
For `COc1cncc(-n2c(C(F)(F)F)ccc(C(=O)C3=C(O)CCCC3=O)c2=O)c1` [I-151], in assay [1], the “herbicidal effect (index), Barnyardgrass” value was 5 (90% or more of herbicidal effect and crop phytotoxicity). In addition, in [2], the “herbicidal effect (index), Velvetleaf” value is 5 (90% or more of herbicidal effect and crop phytotoxicity). Moreover, in assay [3], the “herbicidal effect (index), Green Foxtail” value is 5 (90% or more of herbicidal effect and crop phytotoxicity). In assay [4], the “herbicidal effect (index), Slender Amaranth” value is 5 (90% or more of herbicidal effect and crop phytotoxicity). Moreover, in [5], the “herbicidal effect, Barnyardgrass” value was 5 (90% or more of herbicidal effect and crop phytotoxicity). In addition, in assay [6], the “herbicidal effect, Velvetleaf” value is 5 (90% or more of herbicidal effect and crop phytotoxicity). In assay [7], the “herbicidal effect, Green Foxtail” value is 5 (90% or more of herbicidal effect and crop phytotoxicity). The “herbicidal effect, Slender Amaranth” value in assay [8] was 5 (90% or more of herbicidal effect and crop phytotoxicity). In addition, the “herbicidal effect, Monochoria vaginalis” value in assay [9] is 5 (90% or more of herbicidal effect and crop phytotoxicity). In addition, the “herbicidal effect, Scirpus juncoides Roxb.” value in assay [10] is 5 (90% or more of herbicidal effect and crop phytotoxicity). Further, in [11], the “herbicidal effect, Echinochloa oryzicola Vasing” value is 5 (90% or more of herbicidal effect and crop phytotoxicity).
`O=C1CCCC(O)=C1C(=O)c1ccc(C(F)(F)F)n(CC(F)(F)F)c1=O` [I-10]: the “herbicidal effect (index), Barnyardgrass” value in [1] was 5 (90% or more of herbicidal effect and crop phytotoxicity); in [5] it was 5 (90% or more of herbicidal effect and crop phytotoxicity). Besides, the “herbicidal effect (index), Velvetleaf” value in [2] was 5 (90% or more of herbicidal effect and crop phytotoxicity); in assay [6], 5 (90% or more of herbicidal effect and crop phytotoxicity). Moreover, the “herbicidal effect (index), Green Foxtail” value in [3] is 3 (50 to less than 70% of herbicidal effect and crop phytotoxicity); in [7], 4 (70 to less than 90% of herbicidal effect and crop phytotoxicity). In addition, the “herbicidal effect (index), Slender Amaranth” value in assay [4] is 3 (50 to less than 70% of herbicidal effect and crop phytotoxicity); in assay [8], 5 (90% or more of herbicidal effect and crop phytotoxicity). Also, the “herbicidal effect, Monochoria vaginalis” value in [9] is 5 (90% or more of herbicidal effect and crop phytotoxicity). Also, the “herbicidal effect, Scirpus juncoides Roxb.” value in [10] was 5 (90% or more of herbicidal effect and crop phytotoxicity). Also, in [11], the “herbicidal effect, Echinochloa oryzicola Vasing” value is 5 (90% or more of herbicidal effect and crop phytotoxicity).
For the molecule `CCCS(=O)(=O)Oc1c(C(=O)c2ccc(C(F)(F)F)n(-c3ccc4c(c3)OCO4)c2=O)cnn1C` [IV-98], the “herbicidal effect (index), Barnyardgrass” value in [1] was 3 (50 to less than 70% of herbicidal effect and crop phytotoxicity). For the same molecule, in [2], the “herbicidal effect (index), Velvetleaf” value was 5 (90% or more of herbicidal effect and crop phytotoxicity). Further, in assay [3], the “herbicidal effect (index), Green Foxtail” value was 5 (90% or more of herbicidal effect and crop phytotoxicity). Also, the “herbicidal effect (index), Slender Amaranth” value in assay [4] was 5 (90% or more of herbicidal effect and crop phytotoxicity). In assay [5], the “herbicidal effect, Barnyardgrass” value was 5 (90% or more of herbicidal effect and crop phytotoxicity). Moreover, the “herbicidal effect, Velvetleaf” value in assay [6] is 5 (90% or more of herbicidal effect and crop phytotoxicity). Moreover, the “herbicidal effect, Green Foxtail” value in assay [7] is 4 (70 to less than 90% of herbicidal effect and crop phytotoxicity). The “herbicidal effect, Slender Amaranth” value in assay [8] is 5 (90% or more of herbicidal effect and crop phytotoxicity). The “herbicidal effect, Monochoria vaginalis” value in assay [9] is 5 (90% or more of herbicidal effect and crop phytotoxicity). Further, in [10], the “herbicidal effect, Scirpus juncoides Roxb.” value was 5 (90% or more of herbicidal effect and crop phytotoxicity). In assay [11], the “herbicidal effect, Echinochloa oryzicola Vasing” value was 5 (90% or more of herbicidal effect and crop phytotoxicity).
Turning to `CCCS(=O)(=O)Oc1c(C(=O)c2ccc(C(F)(F)F)n(-c3ccc(F)c(COC)c3)c2=O)cnn1C(C)C` [IV-96], the “herbicidal effect (index), Barnyardgrass” value in [1] was 4 (70 to less than 90% of herbicidal effect and crop phytotoxicity). The “herbicidal effect (index), Velvetleaf” value in assay [2] was 5 (90% or more of herbicidal effect and crop phytotoxicity). Besides, in assay [3], the “herbicidal effect (index), Green Foxtail” value was 3 (50 to less than 70% of herbicidal effect and crop phytotoxicity). Further, the “herbicidal effect (index), Slender Amaranth” value in assay [4] was 4 (70 to less than 90% of herbicidal effect and crop phytotoxicity). In addition, the “herbicidal effect, Barnyardgrass” value in assay [5] is 3 (50 to less than 70% of herbicidal effect and crop phytotoxicity). For the same molecule, the “herbicidal effect, Velvetleaf” value in [6] is 5 (90% or more of herbicidal effect and crop phytotoxicity). For the same molecule, the “herbicidal effect, Green Foxtail” value in assay [7] is 5 (90% or more of herbicidal effect and crop phytotoxicity). Besides, the “herbicidal effect, Slender Amaranth” value in [8] is 4 (70 to less than 90% of herbicidal effect and crop phytotoxicity). Also, the “herbicidal effect, Monochoria vaginalis” value in assay [9] was 5 (90% or more of herbicidal effect and crop phytotoxicity). Further, the “herbicidal effect, Scirpus juncoides Roxb.” value in assay [10] was 4 (70 to less than 90% of herbicidal effect and crop phytotoxicity). The “herbicidal effect, Echinochloa oryzicola Vasing” value in assay [11] is 5 (90% or more of herbicidal effect and crop phytotoxicity).
